Test results from PMC6693507 (Analytical chemistry, 2019).

Assays:
[1] = biological target: T1, ACE (Mus musculus, UniProt P09470); assay: In vitro ACE cleavage of synthetic peptides, MALDI-TOF MS; format: biochemical; settings: 2 pmol/μL peptide, WT ACE or NKO ACE, 30 min, 37 °C
T1 sequence (P09470 35-1312): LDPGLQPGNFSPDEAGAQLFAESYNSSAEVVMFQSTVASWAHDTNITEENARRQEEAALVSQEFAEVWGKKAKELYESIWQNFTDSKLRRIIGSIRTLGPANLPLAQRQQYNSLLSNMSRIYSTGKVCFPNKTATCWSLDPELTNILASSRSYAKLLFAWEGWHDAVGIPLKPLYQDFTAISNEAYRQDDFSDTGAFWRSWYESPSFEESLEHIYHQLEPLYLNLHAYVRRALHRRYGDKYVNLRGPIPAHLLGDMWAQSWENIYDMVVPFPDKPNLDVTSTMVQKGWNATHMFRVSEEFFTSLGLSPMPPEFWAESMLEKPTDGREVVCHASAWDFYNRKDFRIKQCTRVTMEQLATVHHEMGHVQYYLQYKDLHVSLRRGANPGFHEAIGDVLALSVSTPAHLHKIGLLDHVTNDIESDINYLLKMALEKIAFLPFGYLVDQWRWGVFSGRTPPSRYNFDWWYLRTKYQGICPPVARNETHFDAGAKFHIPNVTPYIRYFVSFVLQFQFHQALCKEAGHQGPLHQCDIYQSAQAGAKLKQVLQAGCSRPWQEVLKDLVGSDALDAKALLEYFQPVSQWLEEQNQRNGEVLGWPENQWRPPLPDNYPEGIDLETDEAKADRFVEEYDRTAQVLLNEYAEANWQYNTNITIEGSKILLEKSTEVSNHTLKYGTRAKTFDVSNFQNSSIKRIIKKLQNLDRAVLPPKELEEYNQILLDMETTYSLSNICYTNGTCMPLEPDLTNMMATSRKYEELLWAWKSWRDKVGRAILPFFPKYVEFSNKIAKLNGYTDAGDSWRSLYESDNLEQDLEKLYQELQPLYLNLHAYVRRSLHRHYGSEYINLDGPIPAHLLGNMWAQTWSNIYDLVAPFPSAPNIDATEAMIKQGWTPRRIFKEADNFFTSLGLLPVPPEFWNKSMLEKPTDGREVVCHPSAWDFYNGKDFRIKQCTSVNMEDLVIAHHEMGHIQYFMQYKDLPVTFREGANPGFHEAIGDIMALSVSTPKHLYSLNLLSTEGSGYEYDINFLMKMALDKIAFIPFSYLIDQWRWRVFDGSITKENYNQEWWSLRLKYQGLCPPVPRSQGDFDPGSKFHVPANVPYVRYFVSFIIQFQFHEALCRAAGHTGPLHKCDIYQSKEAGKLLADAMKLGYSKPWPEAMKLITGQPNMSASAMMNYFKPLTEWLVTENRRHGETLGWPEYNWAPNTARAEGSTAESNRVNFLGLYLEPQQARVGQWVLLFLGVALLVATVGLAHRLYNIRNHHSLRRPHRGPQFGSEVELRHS

[2] = system: WT ACE; assay: 100 μL of HEPES buffer; settings: mouse (ACE purified from mouse lung and kidney), 37 °C, up to 30 min

cleavage products detectable by MALDI-MS [1]	not cleaved [2]	Substance
not detectable		FPDGTKEMD [serine-protease inhibitor A3K (22–30)]
	not further cleaved by ACE	FPRSPL
not detectable		FSSLMNLEEKPAPAA [apolipoprotein A-II (87–101)]
	not further cleaved by ACE	WGTGSPRPG
